± gives the standard deviation of the averaged measurements.
Columns and labels:
[1] = tested on: UT-SCC-42A; assay: relative IC50 (midpoint of the fitted curve; maximal inhibition may be below 50%); higher = less potent; settings: culture condition: embedded in Matrigel; treatment time: 3 days
How it was run: (§1)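 The FIMM pipeline was used to fit percent-inhibition dose–response curves, giving IC50, maximal inhibition and drug sensitivity score. Input data were CellTiter-Glo 2.0 luminescence readings, normalised to vehicle (0.1% DMSO) and cell-killing control wells, from HPV-negative HNSCC cell lines seeded at 500 cells/well in 384-well plates. Cells sat on plastic, on Matrigel or Myogel coatings (500 µg/mL), or within Matrigel or Myogel plus rat collagen I, and received compounds at five 10-fold concentrations for 3 days.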

[2] = tested on: UT-SCC-24B; assay: as above; settings: treatment time: 3 days
How it was run: as §1

[3] = tested on: UT-SCC-106A; assay: as above; settings: treatment time: 3 days
How it was run: as §1

[4] = tested on: UT-SCC-73; assay: as above; settings: culture condition: embedded in Matrigel; treatment time: 3 days
How it was run: as §1

[5] = tested on: UT-SCC-14; assay: as above; settings: treatment time: 3 days
How it was run: as §1

[6] = tested on: UT-SCC-44; assay: as above; settings: treatment time: 3 days
How it was run: as §1

[7] = tested on: UT-SCC-28; assay: as above; settings: culture condition: on top of Matrigel; treatment time: 3 days
How it was run: as §1

[8] = tested on: UT-SCC-42A; assay: maximal % inhibition of viability relative to DMSO; higher = stronger effect; settings: treatment time: 3 days
How it was run: as §1

[9] = tested on: UT-SCC-40; assay: as above; settings: treatment time: 3 days
How it was run: as §1

[10] = tested on: UT-SCC-24B; assay: as above; settings: treatment time: 3 days
How it was run: as §1

[11] = tested on: UT-SCC-8; assay: as above; settings: treatment time: 3 days
How it was run: as §1

[12] = tested on: UT-SCC-106A; assay: as above; settings: treatment time: 3 days
How it was run: as §1

[13] = tested on: UT-SCC-73; assay: as above; settings: treatment time: 3 days
How it was run: as §1

[14] = tested on: UT-SCC-44; assay: as above; settings: treatment time: 3 days
How it was run: as §1

[15] = tested on: UT-SCC-28; assay: as above; settings: treatment time: 3 days
How it was run: as §1

[16] = culture condition: embedded in Myogel + collagen I
[17] = culture condition: on top of Matrigel
[18] = culture condition: on top of Myogel
[19] = culture condition: plastic 2D (no matrix)
[20] = culture condition: embedded in Matrigel

COc1ccc(-c2cc3c(C)nc(N)nc3n([C@H]3CC[C@H](OCCO)CC3)c2=O)cn1
relative IC50 [1]: 1.81 µM | relative IC50 [2, 16]: 0.163 µM | relative IC50 [2, 17]: 0.363 µM | relative IC50 [2, 18]: 0.562 µM | relative IC50 [2, 19]: 0.337 µM | relative IC50 [3, 20]: 0.0989 µM | relative IC50 [3, 19]: 0.193 µM | relative IC50 [4]: 0.272 µM | relative IC50 [5, 18]: 0.543 µM | relative IC50 [5, 19]: 0.741 µM | relative IC50 [6, 20]: 0.0789 µM | relative IC50 [6, 18]: 0.805 µM | relative IC50 [7]: 0.118 µM | maximal % inhibition of viability [8, 20]: 71.4 ± 9.7% | maximal % inhibition of viability [8, 16]: 62.5 ± 12% | maximal % inhibition of viability [8, 17]: 72.1 ± 7.3% | maximal % inhibition of viability [8, 18]: 63.3 ± 12% | maximal % inhibition of viability [8, 19]: 72.5 ± 6.5% | maximal % inhibition of viability [9, 20]: 88.6 ± 7.3% | maximal % inhibition of viability [9, 16]: 74 ± 12% | maximal % inhibition of viability [9, 17]: 85.1 ± 7.9% | maximal % inhibition of viability [9, 18]: 64.1 ± 17% | maximal % inhibition of viability [9, 19]: 68 ± 15% | maximal % inhibition of viability [10, 20]: 99.6 ± 0.2% | maximal % inhibition of viability [10, 16]: 98.7 ± 0.36% | maximal % inhibition of viability [10, 17]: 99.57 ± 0.67% | maximal % inhibition of viability [10, 18]: 99 ± 1% | maximal % inhibition of viability [10, 19]: 99.73 ± 0.46% | maximal % inhibition of viability [11, 20]: 91.8 ± 9% | maximal % inhibition of viability [11, 16]: 71.3 ± 21% | maximal % inhibition of viability [11, 17]: 82.1 ± 19% | maximal % inhibition of viability [11, 18]: 78.7 ± 14% | maximal % inhibition of viability [11, 19]: 84 ± 14% | maximal % inhibition of viability [12, 20]: 72.2 ± 2.7% | maximal % inhibition of viability [12, 16]: 58.5 ± 8.7% | maximal % inhibition of viability [12, 17]: 75.6 ± 2.8% | maximal % inhibition of viability [12, 18]: 61.7 ± 13% | maximal % inhibition of viability [12, 19]: 76.8 ± 4.8% | maximal % inhibition of viability [13, 20]: 87.9 ± 5% | maximal % inhibition of viability [13, 16]: 79.9 ± 16% | maximal % inhibition of viability [13, 17]: 82.7 ± 12% | maximal % inhibition of viability [13, 18]: 80 ± 14% | maximal % inhibition of viability [13, 19]: 85.4 ± 6.6% | maximal % inhibition of viability [14, 20]: 45.9 ± 6.3% | maximal % inhibition of viability [14, 16]: 40.2 ± 19% | maximal % inhibition of viability [14, 17]: 44.7 ± 10% | maximal % inhibition of viability [14, 18]: 43 ± 11% | maximal % inhibition of viability [14, 19]: 43.2 ± 15% | maximal % inhibition of viability [15, 20]: 63.3 ± 13% | maximal % inhibition of viability [15, 16]: 65.3 ± 16% | maximal % inhibition of viability [15, 17]: 66 ± 3.7% | maximal % inhibition of viability [15, 19]: 56.8 ± 3.1%

— the supplement of paper PMC7017272
